Data as given in US4693998A, “Novel compounds of the muramyl peptide” (Agence Nationale de Valorisation de la Rechersche, priority 1978, dated 1987).

How the values were obtained:
[1] = Pyrogenicity: maximum temperature variation in rabbits during three hours after administration; type: in vivo, rabbit; conditions: three hours following administration
Protocol: In the course of tests on rabbits, the maximum temperature variations during the three hours following administration were followed. For doses as high as 5 mg/kg or more of product, no significant variation in temperature is observed. Thus the average rise in temperature for administration to rabbits, for different esters of Mur-NAc-L-Ala-D-Gln is: […]

[2] = tested on: Klebsiella pneumoniae; assay: Anti-infection activity with respect to Klebsiella (mouse survival); type: in vivo; conditions: for anti-infectious activity: higher percentage of survivors than control group
Source text: The testing procedure is described in the article CHEDID L. et col., Proc. Natl. Acad. Sci. USA 1977, 74: 2089.
It was shown that a dose of 1 to 2.10^4 Klebsiella pneumoniae, injected by the intramuscular route to mice, results in the progressive death of a considerable part, if not of the whole, of the animals in the week following inoculation. After eight days, the survival of the remaining animals is finally achieved.
The survival of groups of mice inoculated under the above-indicated conditions and treated by means of the products according to the invention, was followed.
For these tests, hybrid mice (C571B1/6×AKR)F1 raised at the INSTITUT PASTEUR were used, there mice being raised from strains coming from the C.N.R.S. breeding station at ORLEANS.
Infection by Klebsiella pneumoniae, capsular type 2, biotype d, strain was effected with a 16 hour culture in medium for pneumococci (No. 53515, INSTITUT PASTEUR) was effected. The infecting dose was 2.10^4 Klebsiella; it was administered by the intramuscular route.
The administration of the tested product is effected by the intravenous route in 0.2 ml of apyrogenic physiological solution, the controls receiving the solution alone. It is carried out 24 hours before the inoculation.

[3] = in vivo; cited from earlier work
[4] = cited from earlier work
[5] = tested on: ovalbumin specific antibodies / delayed hypersensitivity; assay: Adjuvant character in the presence of an oily phase (FIA): ovalbumin antibodies and delayed hypersensitivity; type: in vivo, Hartley guinea pigs; conditions: for Serum Antibodies / Cutaneous test (diameter in mm): guinea pigs; for Serum Antibodies: 0.1 mg in FIA emulsion with 1 mg ovalbumin, intradermal, day 21, nitrogen precipitatable by the antigen; for Cutaneous test (diameter in mm): 0.1 mg in FIA emulsion, 0.01 mg ovalbumin intradermal at day 18, read 48 hours later; for delayed hypersensitivity reaction / level of antibodies formed: administered in an oily emulsion
Protocol: In these tests, the growth of the specific antibody level of a given antigen is followed when the latter is injected, with or without the adjuvant compound according to the invention, in a water in oil emulsion.
The tests were carried out on batches of 6 female Hartley guinea pigs of 350 g. The administration was done by intradermal injection into the plantar pad of each of the rear paws. The ovalbumin (constituting the antigen) at the dose of 1 mg is prepared in 0.1 ml of a saline isotonic solution emulsion, in an oily phase constituted by the Freund incomplete adjuvant (FIA). The compound according to the invention is administered at the dose of 0.1 mg added in the emulsion containing the FIA.
As previously, by way of comparison, a test was carried out with MDP in place of the product according to the invention.
Eighteen days after this immunization, possible reactions are sought of delayed hypersensitivity to the antigen by injecting by the intradermal route 0.01 mg of ovalbumin into the side of the animals, and there was observed, 48 hours later, the reaction at the point of injection. The diameter in millimeters of the reaction thus-caused was measured.
Twenty-one days after the injection, the animals were bled. In the serum collected, the content is measured of specific antibodies of ovalbumin by precipitation of the antibody-antigen complex in the equivalence zone. The amount of protein nitrogen contained in this precipitate was estimated by the method of Folin. These values express the amount, in micrograms, of nitrogen precipitatable by the antigen, per […] of serum.

[6] = tested on: bovine serum albumin (BSA) antibodies; assay: Adjuvant character in the aqueous phase: anti-albumin antibodies by passive hemagglutination; type: in vivo, Swiss mice; conditions: for Antibody Titer Secondary Response / Antibody Titer Primary Response: Swiss mice, 100 μg s.c. with 0.5 mg BSA in isotonic saline; for Antibody Titer Secondary Response: after booster 0.1 mg BSA at 30 days; for Antibody Titer Primary Response: maximum serum dilution agglutinating; for level of antibodies formed: administered in isotonic saline solution
Protocol: In this series of trials of which the results are indicated below, the influence of the active principle according to the invention on the level of anti-albumin antibodies under the following conditions, were studied.
Groups of 8 Swiss mice aged two months received, by sub-cutaneous injection, 0.5 mg of antigen constituted by bovine serum albumin (BSA) with or without the tested substance in isotonic saline solution. This high dose of antigen, because it is situated at the limit of the paralysing dose with respect to the immune response, results for this reason, in a weak or nil response to the antigen alone in the controls; it therefore constitutes a severe criterion for establishing the activity of an adjuvant substance. Thirty days later, the mice received, by the same route of administration, a booster containing 0.1 mg of the same antigen.
By way of comparison, the adjuvant effect was studied simultaneously of 2-(2-acetamido-2-deoxy-3-O-D-glucopyranosyl)-D-propionyl-L-alanyl-D-isoglutamine (MDP) known for its adjuvant properties.
The antibody level is determined by passive hemagglutination using sheep's red blood cells treated with formalin and covered with the antigen studied according to the method described by A. A. HIRATA and M. W. BRANDISS (J. Immunol., 100, 641-648, 1968). Samples were taken respectively after the first injection of antigen and after injection of the booster to determine the primary and secondary responses.
The antibody titers express the maximum serum dilution agglutinating a given amount of sheep's red blood cells.

[7] = tested on: total blood; assay: Influence on coagulation mechanisms: recalcification coagulation time after incubation with total blood; type: cell-based, rabbit; conditions: for coagulation time: 100 μg per 1 ml total blood; for effect on coagulation: contrary to LPS
Source text: It is known, from recent studies, that compounds having adjuvant properties like LPS can have side effects. Thus it has been observed in the rabbits that the administration of LPS has a tendency to shorten the coagulation time. The reasons for this phenomena are not fully known; nonetheless, it has seemed useful to determine the effect of the products according to the invention on coagulation under the same conditions.
For these tests, the test described by LERNER et col. in Thrombosis Research, Vol. 11, pp. 253-261, 1977, "Endotoxin induced disseminated intravascular clotting: evidence that it is mediated by neutrophile production of tissue factor", was used.
The total blood was divided into two portions of which one was centrifuged to obtain platelet-free plasma (PFP).
1 ml of total blood was incubated in a plastic tube in the presence of 100 μg of the product to be tested.
Tubes were also prepared containing 0.1 ml of PFP to which every hour, from 0 to 5 hours, were added 0.1 ml of incubation mixture, then these were recalcified by 0.1 ml of 0.025M calcium chloride.
The coagulation time was noted and the pro-coagulating activity was deduced therefrom as a function of the shortening of the coagulation time with respect to the control, physiological water. The result was compared with that of a highly pro-coagulant reference standard, the LPS.
The coagulation times are expressed in seconds.

Row | Compound | average rise in temperature ([1]; at 10 mg/kg) [°C] | anti-infectious activity [2] | Serum Antibodies [5] | Cutaneous test (diameter in mm) [5] [mm] | Antibody Titer Secondary Response [6] | Antibody Titer Primary Response [6] | coagulation time ([7]; incubation 0 h) [s] | coagulation time ([7]; incubation 2 h) [s] | coagulation time ([7]; incubation 3 h) [s] | coagulation time ([7]; incubation 4 h) [s] | coagulation time ([7]; incubation 5 h) [s] | effect on coagulation [7] | delayed hypersensitivity reaction [5] | level of antibodies formed [5] | level of antibodies formed [6] | also measured
1 | CCCCCCCCCCOC(=O)C(CCC(N)=O)NC(=O)C(C)NC(=O)C(C)OC1C(O)C(CO)OC(O)C1NC(C)=O [decyl ester, n-decyl ester of N-acetyl-muramyl-L-alanyl-D-glutamine] | 0.23 | anti-infectious activity | – | – | – | – | – | – | – | – | – | – | – | – | – | –
2 | CC(=O)N[C@H]1C(O)O[C@H](CO)[C@@H](O)[C@@H]1O[C@H](C)C(=O)N[C@@H](C)C(=O)N[C@H](CCC(N)=O)C(N)=O (stereo partly drawn) [diamide of N-acetyl-muramyl-L-alanyl-D-glutamic acid] | – | – | – | – | – | – | – | – | – | – | – | – | – | – | – | pyrogenicity [3]: very low level of pyrogenicity; adjuvant activity compared with N-acetyl-muramyl-L-alanyl-D-isoglutamine ([4]; in vivo): less active
3 | CC(=O)N[C@@H]1[C@@H](O[C@H](C)C(=O)N[C@@H](C)C(=O)N[C@H](CCC(=O)O)C(N)=O)[C@H](O)[C@@H](CO)O[C@H]1O [MDP, 2-(2-acetamido-2-deoxy-3-O-D-glucopyranosyl)-D-propionyl-L-alanyl-D-isoglutamine, reference compound] | – | – | 5,000 μg/ml | 15 | 300 ± 100 | 50 | – | – | – | – | – | – | – | – | – | –
4 | n-butyl ester of N-acetyl-muramyl-L-alanyl-D-glutamine [Mur--NAc--L-Ala--D-Glu(NH2)--OC4 H9] | 0.30 | anti-infectious activity | 2,000 μg/ml | 8 | 600 ± 200 | 12 | 129 | 120 | 122 | 114 | 108 | do not accelerate coagulation | induces a delayed hypersensitivity reaction | very considerable increase in the level of antibodies formed | considerable increase in the level of antibodies formed | % Protection ([2]; mice, 2.10^4 Klebsiella i.m., product i.v. 24 hours before inoculation): 63%; % Survival D3 ([2]; mice, 2.10^4 Klebsiella i.m., product i.v. 24 hours before inoculation, day 3): 92%; % Survival D5 ([2]; mice, 2.10^4 Klebsiella i.m., product i.v. 24 hours before inoculation, day 5): 75%; % Survival D10 ([2]; mice, 2.10^4 Klebsiella i.m., product i.v. 24 hours before inoculation, day 10): 75%
5 | COC(=O)[C@@H](CCC(N)=O)NC(=O)[C@H](C)NC(=O)[C@@H](C)O[C@H]1[C@H](O)[C@@H](CO)OC(O)[C@@H]1NC(C)=O (stereo partly drawn) [Mur--NAc--L-Ala--D-Glu(NH2)--OCH3, Methyl ester of N-acetyl-muramyl-L-alanyl-D-glutamine] | – | – | 6,000 μg/ml | 17 | 500 ± 150 | 100 | 125 | 118 | 109 | 110 | 104 | do not accelerate coagulation | induces a delayed hypersensitivity reaction | very considerable increase in the level of antibodies formed | considerable increase in the level of antibodies formed | average rise in temperature ([1]; at 5 mg/kg): 0.53 °C
6 | COC(=O)CC[C@@H](NC(=O)[C@H](C)NC(=O)C(C)O[C@H]1[C@H](O)[C@@H](CO)O[C@H](O)[C@@H]1NC(C)=O)C(=O)OC (stereo partly drawn) [dimethyl ester of N-acetyl-muramyl-L-alanyl-D-glutamic acid] | – | – | – | – | – | – | – | – | – | – | – | – | – | – | – | adjuvant activity in oil compared with γ-methylester of N-acetyl-muramyl-L-alanyl-D-isoglutamine ([4]; in oil, ADAM et coll. 1976): lesser adjuvant activity in oil
